Patent US20230255946A1 (Pure Tech LYT 100, Inc., priority 2020, published 2023)
“Also recorded” adds a separate entry of the source.

Experiments:
[1] = Food Effect Study Part 2 (Cohort 5), single 500 mg dose fed vs fasted; format: in vivo
Method: The comparison will be based on Day 1, Day 2 and Day 3 PK plasma samples after the first dose of study drug on Day 1 under fast and fed conditions of Part 2.
Subjects will be admitted to the CRU on Day -1 and will fast overnight for at least 10 h.
Comparison of the PK parameters in the fed and fasted states will be performed, and analysis of PK by gender may be performed if the data allow.

NASH mice = assay: NASH mouse model (streptozotocin and high fat diet), liver histology; format: in vivo
Source text: Non-alcoholic steatohepatitis (NASH) is characterized by lobular inflammation, hepatocyte ballooning and degeneration progressing to liver fibrosis. […] In addition, nine non-NASH mice were fed with a normal diet and monitored.

L929 cells [2] = assay: Survival of L929 cells (MTT); format: cell-based; details: 500 µM, 72 hrs
Method: Five thousand L929 cells were plated in completed DMEN and incubated until confluency for 3 days. Medium was removed and complete DMEM containg Prolin (20 µg/ml) and ascorbic acid (10 uM) was added. […] 100 µL of medium was removed, 20 µL MTT solution was added for 4 hrs, then 100 µl of DMSO was added, and absorbance of developed dark pink color was determined at […].

L929 cells [3] = assay: TGF-induced collagen synthesis in L929 cells, 6-wells (SIRCOL); format: cell-based; details: 500 µM
Method: 100,000 L929 cells were plated in complete DMEN and incubated until confluency for 3 days. Medium was removed and complete DMEM containg Prolin (20 µg/ml) and ascorbic acid (10 µM) was added. […] Cells were further incubated for 72 hrs. Supernatant was removed, cells were washed with cold PBS, 1 ml SIRCOL reagent was added onto the cells and cells were scraped off, samples were shaken for 5 h.at RT, centrifuged at 10.000 rpm for 5 min, supernatant was removed, pellet was dissolved in 0.5 M acetic acid to remove unbound dye, and re-centrifuged at 10.000 rpm for 5 min, supernatant was removed and final pelet was dissolved in 1 ml 0.5 M NaOH, shaken at RT for 5 h, 100 µl of resulted solution was placed in 96-well and O.D was determined at 600.

L929 cells [4] = assay: TGF-induced collagen synthesis in L929 cells, 96-well plate format (SIRCOL); format: cell-based; details: 500 µM
Method: Five thousand L929 cells were plated in complete DMEN and incubated until confluency for 3 days. Medium was removed and complete DMEM containg Prolin (20 µg/ml) and ascorbic acid (10 µM) was added. […] Cells were further incubated for 72 hrs. Supernatant was removed, 0.5% gluteraldehyde was added for 30 min at RT, removed, washed 3X with ddwater, 0.5 M acetic acid was added for 30 min at RT, removed, washed with water, air dried and 100 µl SIRCOL dye was added for 5 h at RT. Dye was removed, plate was washed extensively under running water, air dried and 200 µl of 0.5 M NaOH was added, plates were shaken at RT for 1 h, and OD was determined at 600 nm.

L929 cells [5] = assay: TGF-induced soluble collagen synthesis in L929 cells (ELISA); format: cell-based; details: 500 µM
Method: Five thousand L929 cells were plated in complete DMEN and incubated until confluency for 3 days. Medium was removed and complete DMEM containing Prolin (20 µg/ml) and ascorbic acid (10 µM) was added. […] Cells were further incubated for 72 hrs. 200 µl supernatant of 96-well SIRCOL plate was placed onto ELISA plate and incubated O/N. Next day, supernatant was removed and 100 ul of 1%BSA in PBST was added and incubated for 2 h at RT, BSA was removed, plate was washed 3x with 200 µl of PBST, and anti-collagen type I a.b was added at 1:2000 dilution (prepared in %1 BSA in PBST), incubated at RT for 1 h, primary a.b was removed, plate was washed 3x with 200 µl PBST, and secondary anti-goat HRP was added at 1:2000 dilution, incubate at RT for 1 h, removed, plate was washed 3x with 200 µl PBST and 100 µl of TMB solution was added for color development for 15 min, then 100 µl of 2 N H2SO4 was added to stop the reaction and O.D of developed yellow color was determined at 450 nm.

L929 cells [6] = assay: TGF-induced soluble fibronectin synthesis in L929 cells (ELISA); format: cell-based; details: 500 µM, in the absence and presence of TGF-β-induction
Source text: Fibronectin is another important component of fibrotic lungs as it is induced by TGF-β and functions both as a structural component of extra cellular matrix as well as well as a ligand for integrin receptors. Just like soluble collagen, binding of fibronectin to integrin receptors induces the proliferation of fibroblast and epithelial cells of the lungs.

[7] = system: mouse tail model of lymphedema; assay: Mouse tail model of lymphedema; format: in vivo; details: 400 mg/kg/day oral gavage once daily, by 5 weeks
[8] = human, in vivo, 48 h
Source text: Following screening, eligible healthy volunteer subjects were admitted to a single clinical study site and were randomized to 1 of 2 treatment sequences. […] In each period, a standardized breakfast was provided to subjects prior to administration of study drug (to compare the PK profiles in the clinically relevant fed state) and plasma samples were collected over a 48-hour period after dosing for evaluation of PK. Dosing between the 2 periods was separated by a minimum of 7 days. Subjects completed the study upon completion of the 48-hour post-dose assessments following dosing period 2.
All capsules were identical in size, shape, and external color.

[9] = human, in vivo
Method: All Part 1 cohorts will be dosed every 12 hours with food for 5 days.
During the treatment period (Day 1 through Day 5), participants will be administered their assigned study medication BID, every 12 h ± 0.25 h (with approximately 240 mL of non-carbonated water), 30 minutes after the start of consumption of their standardised breakfast or dinner (12 h apart). A standardised lunch will be served ≥ 4 h post breakfast and ≥ 4 h prior to dinner. An evening snack will be served ≥ 3 h following evening study medication administration. No additional fluids will be allowed during the 1 h pre- and post-doses. On Day 6, subjects will replicate mealtimes as scheduled on Day 1-5.
In Part 1, blood samples (4 mL each) for PK will be collected for Cohorts 1, 2, 3, 4, and 6 at specified times (hours) at each as follows: • Day 1 and Day 5: 0 (pre-dose), 0.5, 1, 1.5, 2, 2.5, 3, 3.5, 4, 6, 8, 12 (pre-dose), 13, 14, 15, 16, 18 h • Day 2, Day 3 and Day 4: 0 (pre-morning-dose) and 12 h (pre-evening-dose) • Day 6: 12, 18, 24 and 36 h post-last dose • Day 7: 48 h (post-last dose)
Pharmacokinetics for Day 1 to 3 in Part 2 (fed state) will be compared to PK for Day 1 to Day 3 in Part 2 (fasted state). Plasma PK parameters (non-compartmental or compartmental analysis as appropriate) will include, but are not limited to: • Following single dose: Tmax, tlag, Cmax, AUC0-4, AUC0-last, t½, AUC0-inf, lambda z, %AUCext, CL/F, Vz/F, Cmax/D, AUC0-last/D, AUC0-inf/D and MRT (D is dose) • After repeated doses: Ctrough, Ctrough/D • Following repeated doses on last day: Tmax, Cmax, Cavg, tlag, t½, AUC0-4, AUC0-last, AUC0-inf, lambda z, %AUCext, CLss/F, Vzss/F, MRT, PTF, Rac(AUC), Rac(Cmax), Cmax/D, AUClast/D, AUC0-inf/D and Rac (accumulation ratio)
All cohorts (n=6 each) were dosed every 12 hours with food for 5 days at either 100, 250, 500, or 750 mg BID. […] Following processing, the samples were analyzed by HPLC on a Phenomenex Luna PFP(2), 3 µm, 50 x 2.0 mm column, and the eluates were monitored by an API4000 MS/MS detector in positive MRM mode. The data were acquired and processed by the data acquisition system Analyst® (Sciex).

[10] = MAD study, safety and tolerability (adverse events)
Source text: All participants in Part 1 and Part 2 will be monitored for safety (including assessment of chemistry, haematology and urinalysis parameters, electrocardiograms [ECGs], vital signs and adverse events [AEs]) and samples will be collected for assessment of PK at predefined time points pre and post-dose as delineated in the Schedule of Events.
Safety and tolerability will be assessed throughout Part 1, Part 2 and Part 3 of the study by monitoring AEs, physical examination, vital signs, 12-lead ECGs, clinical laboratory values (haematology panel, multiphasic chemistry panel and urinalysis), and review of concomitant treatments/medication use.

[11] = male, Sprague Dawley, rat, in vivo, 28 days
Method: The protocol was amended to add additional TK male animals in Group 6 for Day 1 collection of TK samples at 875 mg/kg.
Blood samples were collected from 3 subsets of 3 animals/sex on Day 1 and Day 28 at predose, 0.25, 0.5, 1, 2, 4, 8 and 24 hours (hr) post-dose for groups 2 to 6 and from one subset of 3 animals/sex at 0.25 hr post-dose for the vehicle group (group 1). […] Non-compartmental analysis (NCA) of plasma concentration data was conducted using Phoenix® WinNonlin®, version 8.0.

[12] = 200 mg SD-559 (pirfenidone) BID, Huang et al.; in ng/mL; cited from earlier work

## [2H]C([2H])([2H])c1ccc(=O)n(-c2ccccc2)c1 [LYT-100, deupirfenidone]
[1]; LYT-100 @500 mg single dose
  AUC, % Change Fed vs Fasted: -19%
  Cmax, % Change Fed vs Fasted: -23%
  Tmax, % Change Fed vs Fasted: +25%
[1]; single dose of 500 mg
  tolerability with or without food: no evidence of any tolerability concerns
NASH mice; 30 mg/kg twice daily oral, 6-9 weeks of age, n=8, mean ± SD, p<0.01 vs Vehicle
  Fibrosis Area (%): 0.64 ± 0.31 %
NASH mice; Sirius-red stained liver sections
  fibrosis area compared to the vehicle group: significant reduction
NASH mice; score 0 = <5%, n=8
  number of animals with Steatosis score 0: 4
NASH mice; score 1 = 5-33%, n=8
  number of animals with Steatosis score 1: 3
NASH mice; score 1 = <2 foci/200x, n=8
  number of animals with Lobular Inflammation score 1: 5
NASH mice; score 2 = 2-4 foci/200x, n=8
  number of animals with Lobular Inflammation score 2: 3
NASH mice; score 2 = >33%-66%, n=8
  number of animals with Steatosis score 2: 1
NASH mice; score 2 = Many cells/prominent ballooning, n=8
  number of animals with Hepatocyte ballooning score 2: 8
L929 cells [2]
  survival of L929 cells: does not affect survival
L929 cells [3]
  collagen synthesis in the absence of added TGF-β: significantly inhibits
L929 cells [3]; TGF-β 5 ng/ml, 72 hrs
  TGF-induced collagen synthesis: inhibits
L929 cells [4]
  total collagen level in the absence of TGF-β induction: signficantly inhibited or reduced
L929 cells [4]; TGF-β 5 ng/ml, 72 hrs
  TGF-β-induced total collagen levels: significanly inhibited or reduced
L929 cells [5]
  soluble collagen levels in the absence of TGF-β-induction: signficantly reduced
L929 cells [5]; TGF-β 5 ng/ml, 72 hrs
  TGF-β-induced soluble collagen levels: significantly inhibits
L929 cells [6]
  soluble fibronectin levels: signficantly reduced
[7]
  swelling (tail volume) as compared to carboxymethylcellulose control: significantly reduced swelling
[8]
  tolerability of single doses: well tolerated
[9]
  dose dependence of AUC96-108: linear dose proportionality
[10]
  abdominal discomfort, AE across all cohorts: 6.7%
  abdominal distension, AE across all cohorts: 10%
  headache, AE across all cohorts: 23.3%
  nausea, AE across all cohorts: 10%
[10]; 100 mg BID, N=6
  Abdominal Distension, incidence of TEAE: 0 n (%)
  Abdominal discomfort, incidence of TEAE: 0 n (%)
  Back pain, incidence of TEAE: 1 (16.7%) n (%)
  Dysmenorrhoea, incidence of TEAE: 0 n (%)
  Headache, incidence of TEAE: 1 (16.7%) n (%)
  Nausea, incidence of TEAE: 0 n (%)
  Peripheral swelling, incidence of TEAE: 0 n (%)
  Presyncope, incidence of TEAE: 0 n (%)
[10]; 100 mg up through 1000 mg BID over 5 days
  tolerability: well-tolerated
[10]; 250 mg BID, N=6
  Abdominal Distension, incidence of TEAE: 3 (50.0%) n (%)
  Abdominal discomfort, incidence of TEAE: 0 n (%)
  Back pain, incidence of TEAE: 0 n (%)
  Dysmenorrhoea, incidence of TEAE: 2 (33.3%) n (%)
  Headache, incidence of TEAE: 2 (33.3%) n (%)
  Nausea, incidence of TEAE: 2 (33.3%) n (%)
  Peripheral swelling, incidence of TEAE: 1 (16.7%) n (%)
  Presyncope, incidence of TEAE: 1 (16.7%) n (%)
[10]; 500 mg BID, N=6
  Abdominal Distension, incidence of TEAE: 0 n (%)
  Abdominal discomfort, incidence of TEAE: 0 n (%)
  Back pain, incidence of TEAE: 2 (33.3%) n (%)
  Dysmenorrhoea, incidence of TEAE: 0 n (%)
  Headache, incidence of TEAE: 2 (33.3%) n (%)
  Nausea, incidence of TEAE: 1 (16.7%) n (%)
  Peripheral swelling, incidence of TEAE: 0 n (%)
  Presyncope, incidence of TEAE: 0 n (%)
[10]; 750 mg BID, N=6
  Abdominal Distension, incidence of TEAE: 0 n (%)
  Abdominal discomfort, incidence of TEAE: 2 (33.3%) n (%)
  Back pain, incidence of TEAE: 0 n (%)
  Dysmenorrhoea, incidence of TEAE: 0 n (%)
  Headache, incidence of TEAE: 2 (33.3%) n (%)
  Nausea, incidence of TEAE: 1 (16.7%) n (%)
  Peripheral swelling, incidence of TEAE: 0 n (%)
  Presyncope, incidence of TEAE: 0 n (%)
[10]; 1000 mg BID, N=6
  Abdominal Distension, incidence of TEAE: 1 (16.7%) n (%)
  Abdominal discomfort, incidence of TEAE: 0 n (%)
  Back pain, incidence of TEAE: 0 n (%)
  Dysmenorrhoea, incidence of TEAE: 0 n (%)
  Headache, incidence of TEAE: 2 (33.3%) n (%)
  Nausea, incidence of TEAE: 0 n (%)
  Peripheral swelling, incidence of TEAE: 1 (16.7%) n (%)
  Presyncope, incidence of TEAE: 1 (16.7%) n (%)
[10]; 15 of 30 participants treated with LYT-100
  participants with TEAEs considered at least possibly treatment-related: 50.0%
[10]; 100 to 1000 mg BID, 5 days
  dose-limiting toxicities: No dose-limiting toxicities were observed
  maximum tolerated dose: No maximum tolerated dose was reached; also recorded: no maximally tolerated dose was reached
[10]; MAD study
  severity of adverse events at all doses: mild and transient
[10]; Overall LYT-100, N=30
  Abdominal Distension, incidence of TEAE: 4 (13.3%) n (%)
  Abdominal discomfort, incidence of TEAE: 2 (6.7%) n (%)
  Back pain, incidence of TEAE: 3 (10.0%) n (%)
  Dysmenorrhoea, incidence of TEAE: 2 (6.7%) n (%)
  Headache, incidence of TEAE: 9 (30.0%) n (%)
  Nausea, incidence of TEAE: 4 (13.3%) n (%)
  Peripheral swelling, incidence of TEAE: 2 (6.7%) n (%)
  Presyncope, incidence of TEAE: 2 (6.7%) n (%)

## O=C(O)c1ccc(=O)n(-c2ccccc2)c1 [LYT-105, 5-carboxy-pirfenidone]
[1]; 5-carboxypirfenidone after LYT-100 500 mg
  change in Cmax, AUC, fed vs fasted: < 5%
[9]
  average ratio of metabolite to the parent (M/P) by AUC: 0.45
  dose dependence of AUC96-108: linear dose proportionality
[11]
  exposure in rats relative to humans: ~7 fold
[12]
  observed Cmax: 1476
